Values of other authors in US9873913B2, “Mutation testing” (Roche Molecular Systems, Inc., priority 2013, dated 2018).

System: non-small cell lung cancer (NSCLC) patients
Settings: relatively small subset of NSCLC patients after chemotherapy

Compound	effect on survival (in words)
C#Cc1cccc(Nc2ncnc3cc(OCCOC)c(OCCOC)cc23)c1 [erlotinib]	prolong survival
COc1cc2ncnc(Nc3ccc(F)c(Cl)c3)c2cc1OCCCN1CCOCC1 [gefitinib]	prolong survival
